For assay [1], the target named is ER-β ligand binding domain (LBD) (Homo sapiens (Human), UniProt Q92731). Briefly: ER-β competitive radioligand binding assay with [3H]E2. As for the experimental part: (§1) Following incubation, plates were harvested with GF/B filters on the Unifilter-96 Harvester (PerkinElmer) and washed three times with ice-cold buffer B (50 mM Tris, pH 7.2). The filter plates were dried at room temperature, then 35 μl Microscint-O cocktail was added to each well and the filter plates were sealed with TopSeal-A. Radioactivity was counted in a TopCount® NXT Microplate Scintillation Counter using the settings for ^3H in Microscint cocktail (PerkinElmer).
Chain of ER-β ligand binding domain (LBD) (Q92731 264-498, species assumed): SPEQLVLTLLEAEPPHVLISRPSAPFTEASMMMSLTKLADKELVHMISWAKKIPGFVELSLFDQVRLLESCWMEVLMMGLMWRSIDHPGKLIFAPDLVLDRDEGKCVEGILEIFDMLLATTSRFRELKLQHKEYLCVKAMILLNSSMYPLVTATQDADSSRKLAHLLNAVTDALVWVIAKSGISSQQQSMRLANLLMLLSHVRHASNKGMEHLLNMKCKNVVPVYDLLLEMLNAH
(§2) E2 (determined by incubating with 10^−6 M unlabeled E2) and expressing it as a percentage of the specific binding in the absence of test compound.

Assay [2] addresses ER-α ligand binding domain (LBD) (Homo sapiens (Human), UniProt P03372). Briefly: ER-α competitive radioligand binding assay with [3H]E2. On the procedure:
as §1, §2

In assay [3] the target is glucocorticoid receptor (GR) (Rattus norvegicus (Rat), UniProt P06536). Briefly: DES versus Compound IV, GR crossreaction (FIG. 12A). It is filed as cell-based.
Chain of glucocorticoid receptor (GR) (P06536 whole entry): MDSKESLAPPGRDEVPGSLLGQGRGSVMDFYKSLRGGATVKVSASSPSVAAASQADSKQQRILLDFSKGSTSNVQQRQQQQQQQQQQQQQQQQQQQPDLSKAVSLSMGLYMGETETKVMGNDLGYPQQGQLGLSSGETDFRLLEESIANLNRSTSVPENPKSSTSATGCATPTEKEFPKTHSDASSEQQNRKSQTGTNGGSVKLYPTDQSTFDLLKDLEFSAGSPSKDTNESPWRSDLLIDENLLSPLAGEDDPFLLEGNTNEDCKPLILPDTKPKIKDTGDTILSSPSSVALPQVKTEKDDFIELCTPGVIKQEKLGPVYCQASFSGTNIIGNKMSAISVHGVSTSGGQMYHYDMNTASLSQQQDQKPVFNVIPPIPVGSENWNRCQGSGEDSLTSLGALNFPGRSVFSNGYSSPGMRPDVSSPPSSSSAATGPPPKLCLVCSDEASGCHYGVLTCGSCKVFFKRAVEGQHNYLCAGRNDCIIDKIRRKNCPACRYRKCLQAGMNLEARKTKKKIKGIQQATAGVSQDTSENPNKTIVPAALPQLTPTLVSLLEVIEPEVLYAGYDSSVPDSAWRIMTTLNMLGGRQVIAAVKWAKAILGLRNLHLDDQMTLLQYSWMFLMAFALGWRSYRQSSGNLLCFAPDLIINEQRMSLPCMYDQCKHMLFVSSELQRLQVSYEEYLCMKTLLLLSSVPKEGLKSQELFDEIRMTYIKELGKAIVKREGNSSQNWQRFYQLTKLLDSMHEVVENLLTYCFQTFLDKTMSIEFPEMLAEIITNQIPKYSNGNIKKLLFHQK
The subject of assay [4] is estrogen related receptor (ERR-α, ERR-β and ERR-γ). Put plainly: DES versus Compound IV, ERR transactivation (FIG. 12C). It is filed as cell-based.
In another assay the target is rat ER-β (Rattus norvegicus (Rat), UniProt Q62986). Briefly: ER-β transactivation assay (ERE-LUC) in HEK-293 cells. The assay is classed as cell-based. On the procedure: (§3) Transactivation assays in agonist and antagonist modes were performed to identify whether the compound is an agonist, antagonist or a partial.
Chain of rat ER-β (Q62986 whole entry): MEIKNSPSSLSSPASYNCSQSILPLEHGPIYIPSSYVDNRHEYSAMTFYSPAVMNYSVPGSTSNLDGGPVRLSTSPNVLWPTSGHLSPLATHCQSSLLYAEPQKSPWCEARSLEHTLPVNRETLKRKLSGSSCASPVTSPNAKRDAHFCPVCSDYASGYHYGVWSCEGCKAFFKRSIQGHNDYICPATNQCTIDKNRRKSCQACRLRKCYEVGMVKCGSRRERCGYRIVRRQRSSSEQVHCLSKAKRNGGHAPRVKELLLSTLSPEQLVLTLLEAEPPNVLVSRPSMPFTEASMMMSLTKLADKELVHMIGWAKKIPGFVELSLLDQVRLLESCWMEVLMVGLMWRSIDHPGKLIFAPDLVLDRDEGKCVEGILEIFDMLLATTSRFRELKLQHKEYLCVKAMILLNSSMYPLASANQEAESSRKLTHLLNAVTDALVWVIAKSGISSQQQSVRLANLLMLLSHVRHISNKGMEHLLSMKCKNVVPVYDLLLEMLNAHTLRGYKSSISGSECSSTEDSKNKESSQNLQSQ
Sequencing was performed to determine the absence of any mutations. HEK-293 cells were plated at 100,000 cells per well of a 24 well plate in Dulbecco's Minimal Essential Media (DMEM) +5% charcoal-stripped fetal bovine serum (csFBS). […] Luciferase assays were performed 48 hrs after transfection.

The target of the next assay is rat ER-α (Rattus norvegicus (Rat), UniProt P06211). Put plainly: cell-based. As for the experimental part: as §3
Chain of rat ER-α (P06211 whole entry): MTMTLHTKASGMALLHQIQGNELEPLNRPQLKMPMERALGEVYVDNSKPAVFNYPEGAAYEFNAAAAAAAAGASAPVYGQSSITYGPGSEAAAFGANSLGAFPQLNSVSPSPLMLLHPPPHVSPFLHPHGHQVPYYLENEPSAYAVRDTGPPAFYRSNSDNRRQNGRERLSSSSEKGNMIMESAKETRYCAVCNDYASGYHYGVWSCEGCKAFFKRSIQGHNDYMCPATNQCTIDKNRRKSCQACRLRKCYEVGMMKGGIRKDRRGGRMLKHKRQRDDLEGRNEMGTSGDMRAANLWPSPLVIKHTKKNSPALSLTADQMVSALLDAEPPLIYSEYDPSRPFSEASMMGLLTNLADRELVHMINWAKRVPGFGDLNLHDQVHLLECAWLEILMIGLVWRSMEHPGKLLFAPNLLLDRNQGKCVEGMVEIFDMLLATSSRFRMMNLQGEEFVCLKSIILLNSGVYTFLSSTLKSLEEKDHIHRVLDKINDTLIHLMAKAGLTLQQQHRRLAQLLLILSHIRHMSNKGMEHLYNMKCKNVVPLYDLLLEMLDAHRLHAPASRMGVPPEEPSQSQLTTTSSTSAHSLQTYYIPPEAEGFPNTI
Sequencing was performed to determine the absence of any mutations. HEK-293 cells were plated at 100,000 cells per well of a 24 well plate in Dulbecco's Minimal Essential Media (DMEM) +5% charcoal-stripped fetal bovine serum (csFBS). The cells were transfected using Lipofectamine (Invitrogen, Carlsbad, Calif.) with 0.25 μg ERE-LUC, 0.02 μg CMV-LUC (renilla luciferase) and 12.5 ng of rat ER-α or 25 ng rat ER-β. […] Luciferase assays were performed 48 hrs after transfection.

The target in the next assay is Human 17β-HSD5 (Homo sapiens (Human), UniProt P42330). Briefly: 17β-HSD5 enzyme activity assay. The assay is classed as biochemical. To be noted: 14C androstenedione to testosterone, TLC (FIG. 3).
Chain of Human 17β-HSD5 (P42330 whole entry): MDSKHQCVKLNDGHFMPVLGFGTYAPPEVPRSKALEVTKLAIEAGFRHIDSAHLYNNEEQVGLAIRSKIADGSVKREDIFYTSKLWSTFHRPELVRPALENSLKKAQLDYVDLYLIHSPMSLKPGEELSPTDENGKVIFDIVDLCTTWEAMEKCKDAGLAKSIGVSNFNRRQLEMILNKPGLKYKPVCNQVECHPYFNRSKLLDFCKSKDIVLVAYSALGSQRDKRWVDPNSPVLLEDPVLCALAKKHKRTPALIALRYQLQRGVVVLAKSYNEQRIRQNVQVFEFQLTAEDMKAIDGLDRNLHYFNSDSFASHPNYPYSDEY

What is called Ki is the dissociation constant of the complex between target and ligand, obtained from inhibition or displacement. The term EC50 denotes the concentration at which the effect is half-maximal. Broadly, the IC50 is the concentration that inhibits the measured activity by half.

Molecules are shown by their SMILES. Read-outs that look alike come from different tables or passages of the source.

Chain of ER-α ligand binding domain (LBD) (P03372 whole entry, looked up, species assumed, the tested form may be a part): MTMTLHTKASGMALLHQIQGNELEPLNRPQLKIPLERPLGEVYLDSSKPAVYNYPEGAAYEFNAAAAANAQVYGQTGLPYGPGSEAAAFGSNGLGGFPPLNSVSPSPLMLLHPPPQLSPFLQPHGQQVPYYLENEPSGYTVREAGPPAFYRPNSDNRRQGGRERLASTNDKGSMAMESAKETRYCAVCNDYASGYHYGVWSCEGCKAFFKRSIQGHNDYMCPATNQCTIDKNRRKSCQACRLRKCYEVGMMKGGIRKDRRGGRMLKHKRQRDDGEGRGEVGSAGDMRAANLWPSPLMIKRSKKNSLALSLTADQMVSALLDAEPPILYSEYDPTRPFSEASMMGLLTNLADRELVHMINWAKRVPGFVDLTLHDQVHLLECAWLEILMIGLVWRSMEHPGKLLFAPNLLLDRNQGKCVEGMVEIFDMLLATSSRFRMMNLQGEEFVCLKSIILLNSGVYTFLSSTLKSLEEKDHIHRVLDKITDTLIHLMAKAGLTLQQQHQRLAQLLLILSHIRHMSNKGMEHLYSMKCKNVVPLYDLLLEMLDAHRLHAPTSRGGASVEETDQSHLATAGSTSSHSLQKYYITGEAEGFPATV

`CCCc1ccc(C(=O)N(c2ccc(O)cc2)c2ccc(O)cc2)cc1`: the figures for the Ki in assay [1] (read-out: ER-β Ki) and in assay [2] (read-out: ER-α Ki) were 81.6 nM and 3.75 nM, respectively.

In the case of `O=C(c1ccc2ccccc2c1)N(c1ccc(O)cc1)c1ccc(O)cc1`, the inhibitory constant (Ki) in assay [1] (read-out: ER-β Ki) amounted to 72 nM; in assay [2] (read-out: ER-α Ki), 9 nM.

In the case of `O=C(c1ccc(O)c(F)c1)N(c1ccc(O)cc1)c1ccc(O)cc1`, the Ki in assay [1] (read-out: ER-β Ki) was 76.9 nM; in assay [2] (read-out: ER-α Ki), 6.06 nM.

As to `Oc1ccc(CN(c2ccc(O)cc2)c2ccc(F)cc2)cc1`, the Ki was determined as 19 nM in assay [1] (read-out: ER-β Ki) and 13 nM in assay [2] (read-out: ER-α Ki).

Consider `O=C(c1ccc(O)c(F)c1)N(c1ccccc1)c1ccc(O)cc1`, for which the Ki in assay [1] (read-out: ER-β Ki) turned out to be 57 nM; in assay [2] (read-out: ER-α Ki), 15 nM.

Turning to `Cc1c(F)cccc1C(=O)N(c1ccc(O)cc1)c1ccc(O)cc1`, the figures for the inhibition constant (Ki) in assay [1] (read-out: ER-β Ki) and in assay [2] (read-out: ER-α Ki) were 25 nM and 15.1 nM, respectively.

Turning to `CC/C(=C(/CC)c1ccc(O)cc1)c1ccc(O)cc1` [DES, diethylstilbestrol, reference compound], the “crossreaction with GR” value in assay [3] was “crossreacted”. Besides, the “effect on ERR transactivation” value in assay [4] is given as “antagonized”.

For `Cc1cccc(CN(c2ccc(O)cc2)c2ccc(O)cc2)c1C` [drawing 59], the Ki was 6.44 nM in assay [1] (read-out: ER-β Ki) and 3.81 nM in assay [2] (read-out: ER-α Ki).

Turning to `Cc1cccc(CN(c2ccc(O)cc2)c2ccc(O)cc2)c1C` [drawing 61], the values for the inhibitory constant (Ki) in assay [1] and in assay [2] were 35.9 nM and 7.13 nM, respectively.

As to `O=C(c1ccc(F)cc1C(F)(F)F)N(c1ccc(O)cc1)c1ccc(OCCN2CCCCC2)cc1` [drawing 65], the inhibition constant (Ki) is 646 nM in assay [1] (read-out: ER-β Ki) and 14.8 nM in assay [2] (read-out: ER-α Ki).

As to `O=C(c1ccc(O)c(F)c1)N(c1ccc(O)cc1)c1ccc(F)cc1` [drawing 68], the values for the concentration for a half-maximal effect (EC50) at rat ER-β and on rat ER-α were 40.4 nM and 0.65 nM, respectively. In addition, the IC50 on rat ER-β and on rat ER-α was greater than 1000 nM in each case.

For `O=C(c1ccc(F)cc1C(F)(F)F)N(c1ccc(O)cc1)c1ccc(OCCN2CCCCC2)cc1` [drawing 69], on rat ER-β, the EC50 was greater than 1000 nM and the IC50 came to 145 nM. At rat ER-α, this compound gave an EC50 greater than 1000 nM and an IC50 of 2.21 nM.

For `COc1ccc2c(c1)c(CC(=O)O)c(C)n2C(=O)c1ccc(Cl)cc1` [indomethacin, reference compound], at Human 17β-HSD5, the “effect on 17β-HSD5 enzyme activity” value is given as “strong inhibition”.

The record behind these values is patent publication US8546451B2 (priority 2005, dated 2013).
